These results are taken from ChEMBL document CHEMBL5154787 (J Med Chem, 2022).

Data set [1] can be described thus: Drug concentration in CCI induced tactile allodynia in Sprague-Dawley rat spinal cord at 3 mg/kg, po measured at 7.5 hrs post dose. It counts as ADME, organism-based. Conditions: read-out: Ct.
Data set [2] in a line: Solubility of compound at pH 4 measured after 24 hrs. The class given is physicochemical. As to conditions: buffer.
A short description of data set [3]: Genotoxicity in Salmonella typhimurium by Ames test. The class given is toxicity. Conditions: salmonella enterica subsp. enterica serovar typhimurium.
Data set [4] can be described thus: Drug concentration in STZ-induced diabetic peripheral neuropathic mechanical allodynia in overnight fasted Sprague-Dawley rat spinal cord at 1 mg/kg, po measured at 5.75 hrs post dose. The class given is ADME, organism-based. Conditions: read-out: Ct.
The test system of data set [5] is Rattus norvegicus. Briefly: Analgesic activity in CCI induced tactile allodynia in Sprague-Dawley rat assessed as reduction in pain response at 3 mg/kg, po by Hargreaves test relative to control. It counts as functional. Further details: scale not given: the % may be the effect or the level left.
In data set [6] the target is Voltage-gated inwardly rectifying potassium channel KCNH2 (Homo sapiens, UniProt Q12809). Briefly: Inhibition of human ERG by patch clamp assay. The class given is toxicity.
Sequence of Voltage-gated inwardly rectifying potassium channel KCNH2 (Q12809 whole entry): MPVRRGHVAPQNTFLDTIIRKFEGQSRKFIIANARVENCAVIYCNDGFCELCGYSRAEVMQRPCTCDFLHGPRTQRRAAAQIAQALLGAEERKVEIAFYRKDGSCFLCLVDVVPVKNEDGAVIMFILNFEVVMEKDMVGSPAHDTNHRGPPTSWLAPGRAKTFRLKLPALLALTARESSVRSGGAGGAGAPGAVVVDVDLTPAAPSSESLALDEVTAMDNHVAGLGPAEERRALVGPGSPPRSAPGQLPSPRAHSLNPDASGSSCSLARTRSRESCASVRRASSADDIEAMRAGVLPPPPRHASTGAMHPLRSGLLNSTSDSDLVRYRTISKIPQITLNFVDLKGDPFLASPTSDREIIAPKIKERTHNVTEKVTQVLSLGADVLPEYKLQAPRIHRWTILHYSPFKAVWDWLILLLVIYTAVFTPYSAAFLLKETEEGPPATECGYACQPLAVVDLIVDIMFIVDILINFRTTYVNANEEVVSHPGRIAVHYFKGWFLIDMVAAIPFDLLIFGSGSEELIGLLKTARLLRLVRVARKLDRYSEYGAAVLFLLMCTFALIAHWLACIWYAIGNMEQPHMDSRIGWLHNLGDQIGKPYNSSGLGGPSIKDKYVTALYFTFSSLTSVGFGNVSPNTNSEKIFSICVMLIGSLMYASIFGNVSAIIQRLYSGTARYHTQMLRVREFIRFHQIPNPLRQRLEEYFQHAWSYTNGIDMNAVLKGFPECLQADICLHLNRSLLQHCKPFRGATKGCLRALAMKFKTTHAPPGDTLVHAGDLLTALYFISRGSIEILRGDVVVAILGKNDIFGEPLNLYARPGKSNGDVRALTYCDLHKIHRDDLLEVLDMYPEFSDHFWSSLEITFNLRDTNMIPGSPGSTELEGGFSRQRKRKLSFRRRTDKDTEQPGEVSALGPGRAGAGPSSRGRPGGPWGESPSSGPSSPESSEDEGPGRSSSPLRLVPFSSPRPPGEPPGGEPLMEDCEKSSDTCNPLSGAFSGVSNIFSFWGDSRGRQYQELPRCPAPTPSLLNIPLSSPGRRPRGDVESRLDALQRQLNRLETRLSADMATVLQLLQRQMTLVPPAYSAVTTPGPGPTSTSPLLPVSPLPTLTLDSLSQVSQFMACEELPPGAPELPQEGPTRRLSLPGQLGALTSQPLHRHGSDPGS
Data set [7] concerns the target T1, Cyclin-G-associated kinase (Homo sapiens, UniProt O14976).
T1 sequence (O14976 whole entry): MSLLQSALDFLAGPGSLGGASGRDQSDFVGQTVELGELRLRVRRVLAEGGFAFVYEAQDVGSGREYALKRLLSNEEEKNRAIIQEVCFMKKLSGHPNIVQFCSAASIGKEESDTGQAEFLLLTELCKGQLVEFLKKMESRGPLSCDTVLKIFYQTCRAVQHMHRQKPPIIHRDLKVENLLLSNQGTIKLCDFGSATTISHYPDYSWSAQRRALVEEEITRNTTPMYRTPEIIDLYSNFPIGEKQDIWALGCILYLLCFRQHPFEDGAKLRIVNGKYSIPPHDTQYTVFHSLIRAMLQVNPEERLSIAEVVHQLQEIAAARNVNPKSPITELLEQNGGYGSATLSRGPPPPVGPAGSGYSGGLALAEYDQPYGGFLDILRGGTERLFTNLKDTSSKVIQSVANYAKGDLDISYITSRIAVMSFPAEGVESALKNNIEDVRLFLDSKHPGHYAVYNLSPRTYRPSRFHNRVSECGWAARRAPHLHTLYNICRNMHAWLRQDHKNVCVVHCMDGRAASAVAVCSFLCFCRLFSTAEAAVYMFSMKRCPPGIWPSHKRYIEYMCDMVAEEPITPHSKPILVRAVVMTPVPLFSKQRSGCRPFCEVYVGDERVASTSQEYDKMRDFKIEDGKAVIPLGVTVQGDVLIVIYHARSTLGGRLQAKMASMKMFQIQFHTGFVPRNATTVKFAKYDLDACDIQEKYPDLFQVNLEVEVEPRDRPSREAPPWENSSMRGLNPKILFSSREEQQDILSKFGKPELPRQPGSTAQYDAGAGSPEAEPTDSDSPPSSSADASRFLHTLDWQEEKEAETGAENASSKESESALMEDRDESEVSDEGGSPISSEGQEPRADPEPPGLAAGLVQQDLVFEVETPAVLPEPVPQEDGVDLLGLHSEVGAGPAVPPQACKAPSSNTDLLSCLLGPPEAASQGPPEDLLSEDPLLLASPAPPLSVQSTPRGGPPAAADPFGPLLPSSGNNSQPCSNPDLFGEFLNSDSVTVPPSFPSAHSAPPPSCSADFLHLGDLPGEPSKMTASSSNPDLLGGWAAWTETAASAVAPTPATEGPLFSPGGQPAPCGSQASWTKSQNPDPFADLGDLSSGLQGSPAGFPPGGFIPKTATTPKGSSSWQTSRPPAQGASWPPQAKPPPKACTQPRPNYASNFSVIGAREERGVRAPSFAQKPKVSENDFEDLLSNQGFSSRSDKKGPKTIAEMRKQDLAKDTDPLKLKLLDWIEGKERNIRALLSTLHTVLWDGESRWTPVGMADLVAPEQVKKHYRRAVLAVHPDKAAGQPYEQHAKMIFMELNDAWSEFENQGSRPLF
As to the kind of experiment: Inhibition of GAK (unknown origin).

Data set [8] can be described thus: Ratio of drug concentration in spinal cord to plasma in STZ-induced diabetic peripheral neuropathic mechanical allodynia in overnight fasted Sprague-Dawley rat at 1 mg/kg, po measured at 5.75 hrs post dose. It counts as ADME, organism-based.
Data set [9] in a line: Ratio of drug concentration in spinal cord to plasma in CCI induced tactile allodynia in Sprague-Dawley rat at 3 mg/kg, po measured at 7.5 hrs post dose. It counts as ADME, organism-based.
Data set [10] can be described thus: Plasma concentration in CCI induced tactile allodynia in Sprague-Dawley rat at 3 mg/kg, po measured at 7.5 hrs post dose. The class given is ADME, organism-based.
The target of data set [11] is AP2-associated protein kinase 1 (Mus musculus, UniProt Q3UHJ0). Briefly: Displacement of 3H-LP-927443 from AAK1 in C57BL6 mouse brain homogenate assessed as inhibition constant incubated for 1 hr by liquid scintillation counter analysis. The class given is tissue-based. (In general: Loss of bound radioactivity is the signal in a displacement assay; it reports binding, not function.)
Sequence of AP2-associated protein kinase 1 (Q3UHJ0 whole entry): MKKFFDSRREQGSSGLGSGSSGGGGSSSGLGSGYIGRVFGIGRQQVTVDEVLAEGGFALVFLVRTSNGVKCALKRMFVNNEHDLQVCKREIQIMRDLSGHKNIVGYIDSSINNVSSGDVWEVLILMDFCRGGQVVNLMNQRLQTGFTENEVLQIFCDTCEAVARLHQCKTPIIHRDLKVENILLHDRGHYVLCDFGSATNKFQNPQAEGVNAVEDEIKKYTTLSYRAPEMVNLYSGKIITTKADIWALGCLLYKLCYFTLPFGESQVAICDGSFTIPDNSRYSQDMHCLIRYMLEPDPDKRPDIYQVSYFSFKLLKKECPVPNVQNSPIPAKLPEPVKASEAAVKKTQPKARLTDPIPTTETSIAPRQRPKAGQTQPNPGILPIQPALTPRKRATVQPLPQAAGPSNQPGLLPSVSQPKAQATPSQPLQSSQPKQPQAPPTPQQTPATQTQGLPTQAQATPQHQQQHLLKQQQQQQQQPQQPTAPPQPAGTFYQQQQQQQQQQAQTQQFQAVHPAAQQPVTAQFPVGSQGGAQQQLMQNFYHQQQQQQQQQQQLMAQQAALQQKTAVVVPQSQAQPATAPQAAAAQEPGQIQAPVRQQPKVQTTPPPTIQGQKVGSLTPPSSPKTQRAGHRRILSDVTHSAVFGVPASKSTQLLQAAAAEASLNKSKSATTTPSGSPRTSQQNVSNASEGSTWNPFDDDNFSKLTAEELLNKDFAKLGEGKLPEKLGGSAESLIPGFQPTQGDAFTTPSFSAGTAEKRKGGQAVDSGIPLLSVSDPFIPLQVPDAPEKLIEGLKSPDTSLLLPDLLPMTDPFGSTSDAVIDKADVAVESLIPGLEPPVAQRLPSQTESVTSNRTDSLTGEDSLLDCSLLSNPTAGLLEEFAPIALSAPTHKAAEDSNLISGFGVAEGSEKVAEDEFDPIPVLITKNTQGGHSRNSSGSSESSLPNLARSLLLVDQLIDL

Data set [12] can be described thus: Genotoxicity in chinese hamster CHO cells in presence of metabolic activation system at 169 uM by IVMN assay. It counts as toxicity, cell-based, Cricetulus griseus.
Data set [13] concerns the target Cytochrome P450 2C19 (Homo sapiens, UniProt P33261). As to the kind of experiment: Inhibition of CYP2C19 (unknown origin) incubated for 10 mins in presence of NADPH by LC-MS/MS analysis. The class given is ADME.
Data set [14] can be described thus: Plasma concentration in STZ-induced diabetic peripheral neuropathic mechanical allodynia in overnight fasted Sprague-Dawley rat at 1 mg/kg, po measured at 5.75 hrs post dose. It counts as ADME, organism-based.
The target in data set [15] is Myosin light chain kinase 2, skeletal/cardiac muscle (Homo sapiens, UniProt Q9H1R3). As to the kind of experiment: Inhibition of MYLK2 (unknown origin).
Sequence of Myosin light chain kinase 2, skeletal/cardiac muscle (Q9H1R3 whole entry): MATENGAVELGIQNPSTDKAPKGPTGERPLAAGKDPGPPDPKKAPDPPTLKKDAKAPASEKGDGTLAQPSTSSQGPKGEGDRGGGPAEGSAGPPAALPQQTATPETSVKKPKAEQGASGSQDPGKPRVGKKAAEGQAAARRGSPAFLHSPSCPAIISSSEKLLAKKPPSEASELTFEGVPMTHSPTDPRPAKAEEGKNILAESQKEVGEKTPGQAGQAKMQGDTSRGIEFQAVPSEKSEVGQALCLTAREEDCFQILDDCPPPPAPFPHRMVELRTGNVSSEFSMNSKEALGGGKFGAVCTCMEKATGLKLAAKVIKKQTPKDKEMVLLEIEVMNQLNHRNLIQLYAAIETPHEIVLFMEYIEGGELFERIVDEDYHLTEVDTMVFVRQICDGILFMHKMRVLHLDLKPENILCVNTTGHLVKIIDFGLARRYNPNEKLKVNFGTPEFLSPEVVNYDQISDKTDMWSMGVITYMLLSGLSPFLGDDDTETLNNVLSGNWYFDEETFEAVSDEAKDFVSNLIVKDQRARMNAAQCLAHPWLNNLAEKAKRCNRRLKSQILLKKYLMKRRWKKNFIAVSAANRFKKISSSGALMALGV
Data set [16] concerns the target MAP kinase-interacting serine/threonine-protein kinase 1 (Homo sapiens, UniProt Q9BUB5). As to the kind of experiment: Inhibition of MNK1 (unknown origin).
The target in data set [17] is T2, Cytochrome P450 3A4 (Homo sapiens, UniProt P08684). Briefly: Time dependent inhibition of […] (unknown origin) using TST as substrate incubated for up to 30 mins in presence of NADPH by LC-MS/MS analysis. It counts as ADME.
T2 sequence (P08684 whole entry): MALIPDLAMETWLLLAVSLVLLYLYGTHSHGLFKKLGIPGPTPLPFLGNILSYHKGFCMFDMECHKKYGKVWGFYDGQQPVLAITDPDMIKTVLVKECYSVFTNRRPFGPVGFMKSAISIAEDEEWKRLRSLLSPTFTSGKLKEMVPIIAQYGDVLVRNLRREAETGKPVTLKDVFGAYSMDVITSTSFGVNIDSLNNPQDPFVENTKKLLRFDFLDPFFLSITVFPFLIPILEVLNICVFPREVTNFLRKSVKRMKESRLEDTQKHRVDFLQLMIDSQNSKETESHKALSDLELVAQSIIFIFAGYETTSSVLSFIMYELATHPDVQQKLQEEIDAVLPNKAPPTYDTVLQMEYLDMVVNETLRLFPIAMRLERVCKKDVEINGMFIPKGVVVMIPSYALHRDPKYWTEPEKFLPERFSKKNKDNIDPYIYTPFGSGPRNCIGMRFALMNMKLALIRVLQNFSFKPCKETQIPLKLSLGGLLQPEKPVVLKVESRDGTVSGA
Data set [18] concerns the target Neuronal acetylcholine receptor subunit alpha-7 (Homo sapiens, UniProt P36544). As to the kind of experiment: Inhibition of nicotinic acetylcholine receptor alpha 7 (unknown origin). It counts as toxicity.
Data set [19] in a line: Protein binding in mouse plasma assessed as unbound fraction measured after 3 hrs by LC/MS/MS analysis. The class given is ADME, cell-free.
For data set [20], the target named is T2, Cytochrome P450 3A4. As to the kind of experiment: Time dependent inhibition of […] (unknown origin) using MDZ as substrate incubated for up to 30 mins in presence of NADPH by LC-MS/MS analysis. It counts as ADME.
The target in data set [21] is T2, Cytochrome P450 3A4. Briefly: Time dependent inhibition of […] (unknown origin) using BFC as substrate incubated for 5 mins in presence of NADPH by LC-MS/MS analysis. The class given is ADME.
For data set [22], the target named is Sodium-dependent noradrenaline transporter (Homo sapiens, UniProt P23975). As to the kind of experiment: Inhibition of NET (unknown origin). It counts as toxicity.
Sequence of Sodium-dependent noradrenaline transporter (P23975 whole entry): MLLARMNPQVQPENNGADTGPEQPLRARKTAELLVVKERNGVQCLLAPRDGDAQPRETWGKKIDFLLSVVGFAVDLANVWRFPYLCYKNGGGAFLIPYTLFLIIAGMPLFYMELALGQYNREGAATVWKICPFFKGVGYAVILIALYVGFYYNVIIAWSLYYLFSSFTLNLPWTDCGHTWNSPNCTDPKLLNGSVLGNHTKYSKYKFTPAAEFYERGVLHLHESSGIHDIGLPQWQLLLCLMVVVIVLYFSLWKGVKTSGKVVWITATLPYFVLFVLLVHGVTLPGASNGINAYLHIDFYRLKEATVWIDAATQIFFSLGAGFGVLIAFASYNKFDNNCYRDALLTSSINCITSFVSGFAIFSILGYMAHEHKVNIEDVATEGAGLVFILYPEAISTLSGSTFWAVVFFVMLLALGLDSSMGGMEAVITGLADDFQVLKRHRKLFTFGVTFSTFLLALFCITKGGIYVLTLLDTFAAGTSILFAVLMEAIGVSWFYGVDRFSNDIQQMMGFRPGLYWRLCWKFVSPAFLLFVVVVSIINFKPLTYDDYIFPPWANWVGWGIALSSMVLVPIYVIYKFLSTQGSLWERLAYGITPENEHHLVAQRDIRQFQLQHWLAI
In data set [23] the target is T2, Cytochrome P450 3A4. Briefly: Time dependent inhibition of […] (unknown origin) using BFC as substrate incubated for 30 mins in presence of NADPH by LC-MS/MS analysis. It counts as ADME.
Data set [24] can be described thus: Protein binding in mouse brain assessed as unbound fraction at 1 uM measured after 4 hrs by LC/MS/MS analysis. The class given is ADME, tissue-based.
Data set [25] deals with TRAF2 and NCK-interacting protein kinase (Homo sapiens, UniProt Q9UKE5). Briefly: Inhibition of TNIK (unknown origin).

Sequence of Cytochrome P450 2C19 (P33261 whole entry): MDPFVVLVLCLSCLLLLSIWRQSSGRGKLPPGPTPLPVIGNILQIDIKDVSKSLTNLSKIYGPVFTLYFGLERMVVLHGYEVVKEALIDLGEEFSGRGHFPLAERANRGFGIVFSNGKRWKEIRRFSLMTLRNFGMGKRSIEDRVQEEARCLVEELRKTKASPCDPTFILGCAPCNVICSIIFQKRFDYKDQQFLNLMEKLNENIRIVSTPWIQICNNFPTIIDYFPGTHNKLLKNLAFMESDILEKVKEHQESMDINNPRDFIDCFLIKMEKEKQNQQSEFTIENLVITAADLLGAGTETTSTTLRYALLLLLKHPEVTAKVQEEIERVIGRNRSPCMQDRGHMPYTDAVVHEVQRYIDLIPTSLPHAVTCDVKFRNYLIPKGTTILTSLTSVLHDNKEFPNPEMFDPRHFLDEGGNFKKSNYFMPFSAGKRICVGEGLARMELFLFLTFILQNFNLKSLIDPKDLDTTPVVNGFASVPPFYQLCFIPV
Sequence of Neuronal acetylcholine receptor subunit alpha-7 (P36544 whole entry): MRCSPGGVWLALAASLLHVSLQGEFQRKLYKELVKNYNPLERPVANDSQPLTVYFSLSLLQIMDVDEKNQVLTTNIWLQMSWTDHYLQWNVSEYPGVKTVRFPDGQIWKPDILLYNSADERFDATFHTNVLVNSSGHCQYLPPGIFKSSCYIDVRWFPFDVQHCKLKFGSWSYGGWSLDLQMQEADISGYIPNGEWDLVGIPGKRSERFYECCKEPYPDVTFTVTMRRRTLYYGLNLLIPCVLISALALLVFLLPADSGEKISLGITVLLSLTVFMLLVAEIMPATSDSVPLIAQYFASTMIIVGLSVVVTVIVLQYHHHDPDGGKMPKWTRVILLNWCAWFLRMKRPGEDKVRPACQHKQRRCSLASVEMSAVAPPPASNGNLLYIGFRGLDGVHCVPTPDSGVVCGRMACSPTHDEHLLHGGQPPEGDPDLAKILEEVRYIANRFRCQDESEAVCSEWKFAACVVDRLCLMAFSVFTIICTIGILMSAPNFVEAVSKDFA

The term solubility denotes how much of the substance goes into solution per volume. One may read the IC50 as the concentration needed to halve the response being measured. One may read the Kp as tissue or fluid exposure divided by exposure in the circulation. As usually defined, the Ki is the equilibrium dissociation constant of an inhibitor or competing ligand from its target. With `COC(=O)Nc1cc(-c2ccc(OC[C@@](C)(N)CC(C)C)c(C)n2)ccn1`, the concentration at 7.5 h in data set [1] was determined as 4400 nM; in [10] it was 500 nM. Besides, the solubility at 24 h in data set [2] is greater than 1000 µg/mL. Moreover, the results for the Activity entry in data set [3], in data set [5] and in data set [12] were “Non-Toxic”, 80% and “Non-Toxic”, respectively. In addition, the concentration at 5.75 h in [4] is 213 nM; in data set [14] it was 80 nM. For the same molecule, the IC50 in [6] was 5900 nM; in data set [7], 210 nM; in data set [13], greater than 20000 nM; in data set [15], 1800 nM; in data set [16], 190 nM. Besides, the concentration ratio (Kp) at 5.75 h in data set [8] came to 2.7. Moreover, the Kp at 7.5 h in [9] was 8.8. For the same molecule, in data set [11], the inhibition constant Ki amounted to 0.29 nM.

In general, fraction unbound refers to the share of the substance not bound to proteins or other matrix. Turning to `COC(=O)Nc1cc(-c2cnc(OC[C@@](C)(N)CC(C)C)c(C)c2)ccn1`, the IC50 in [17] was greater than 40000 nM; in data set [18], 4500 nM; in data set [20], greater than 40000 nM; in [21] it was greater than 20000 nM; in [7], 440 nM; in data set [22] it was 5000 nM. The half-maximal inhibitory concentration (IC50) in data set [23] and in data set [13] was greater than 20000 nM each time. Also, in data set [19], the fraction unbound at 3 h was found to be 0.049. In addition, the figures for the concentration at 7.5 h in data set [1] and in data set [10] were 720 nM and 140 nM, respectively. Moreover, the Activity in [5] worked out at 60%. For the same molecule, the partition ratio (Kp) at 7.5 h in [9] turned out to be 5.1. For the same molecule, the Ki in data set [11] worked out at 0.21 nM.

Turning to `CC(C)C[C@](C)(N)COc1cnc(-c2ccnc(C(F)F)c2)cc1C(F)F`, the IC50 in data set [17] was greater than 40000 nM; in data set [18], 4000 nM; in data set [20], greater than 40000 nM; in data set [21] it was greater than 20000 nM; in data set [25], 2000 nM; in data set [6], 1300 nM. In addition, the IC50 is 400 nM in data set [7]; 1800 nM in data set [22]; greater than 20000 nM in data set [23]; greater than 20000 nM in [13]; 450 nM in [15]; 260 nM in [16]. In addition, the fraction unbound at 3 h in data set [19] is 0.065. Besides, the unbound share (fraction unbound) at 4 h, 1 µM in [24] amounted to 0.018. Further, the Activity result in data set [3] is reported as “Non-Toxic”. In addition, the concentration at 5.75 h came to 213 nM in [4] and 80 nM in data set [14]. The partition ratio (Kp) at 5.75 h in data set [8] was 2.7. The Ki in [11] was found to be 0.05 nM.
